# Tested on: mouse model of hepatic steatosis
# Test: HFD-induced hepatic steatosis (NAFLD) mouse model treated with UCB9608
# Format: in vivo, mice
# Protocol: Male mice were used for NAFLD induction via feeding on HFD. ROSA26-LSL-spCas9 mice were injected with AAV-U6-Cu/7 gRNAs-TBG-Cre and AAV-U6-Fbxw8 gRNAs-TBG-Cre virus pools at a dose of 3×10^11 genome copies/mouse and fed in HFD for 12 weeks and livers were harvested after 6 hours fasting. To study PI4KB in NAFLD progression, male ROSA26-LSL-spCas9 mice were fed in HFD for 12 weeks to induce fatty liver before induction of hepatocyte specific depletion of PI4KB via intravenous administration of AAV8. After another 8 weeks, mice were dissected to harvest liver after 6 hours fasting. Likewise, male C57BL/6N wild-type mice and liver specific Atgl knockout mice (AtglLKO) were challenged with HFD for 12 weeks to induce fatty liver prior to administration of UCB9608 mixed in HFD (5 mg/kg) for another 8 weeks. Then the mice were dissected to harvest tissues and sample blood after 6 hours fasting Atgl floxed mice (The Jackson Lab strain) were crossed with Albumin-Cre (The Jackson Lab strain) and Adip-CreERT2 strains to obtain Alb-Atgfl^fl/fl and AdipcreERT2-Atgl^fl/fl mice (Sitnick,M.T. et al, Diabetes 62, (2013)), which deplete ATGL protein in the liver and the adipose depots (induced after tamoxifen gavage), respectively. […]
# Adipose depots, liver pieces, differentiated iBAs, HepG2, HEK293T and HEK293-AAV cell types were homogenized in RIPA buffer (50 mM Tris-HCl pH 7.4, 150 mM NaCl, 2 mM EDTA, 1.0% Triton X100, 0.5% sodium deoxycholate) with protease inhibitors (Complete, Roche) and phosphatase inhibitors (Halt phosphatase inhibitor cocktail, ThermoFisher). […] The concentration of WCE was determined by DC Protein Assay (Bio-Rad). […]
# Plasma collected from mice under different conditions was used to determine levels of lipolysis and liver injury. FFA levels were measured via NEFA assay kit (Wako NEFA kit). TG levels were determined via TG assay kit (Roche Trig/GB reagent). […] The absorbance was monitored using Synergy Gen5 Platereader.
# Weight of liver pieces (50-100 mg) was recorded before homogenization by 1 mL isopropanol per 50 mg tissue. […]
compound,measurement,setting,value
COc1ccc(NC(=O)N2CCN(c3nc(N)nc4c3cnn4C)[C@@H](C)C2)c(C)c1 [UCB9608],hepatic steatosis (hepatic TG levels),"HFD 12 weeks, then UCB9608 in HFD (5 mg/kg) 8 weeks, requires ATGL in the liver",substantially attenuated
same,"ATGL protein levels in the iBAT, gWAT and liver",UCB9608- vs DMSO-treated HFD mice,significantly greater
same,plasma FFA levels,"wild-type mice, HFD 12 weeks, then UCB9608 in HFD (5 mg/kg) 8 weeks, vs DMSO",significantly increased
